The source of these data is patent US20160244679A1, “SELECTIVE LIQUID-LIQUID EXTRACTION OF OXIDATIVE DESULFURIZATION REACTION PRODUCTS” (SAUDI ARABIAN OIL COMPANY, priority 2011, published 2016).

Type in all cases: physicochemical
Series [1] is described as follows: Batch liquid-liquid extraction of oxidized model diesel with 50 W % aqueous methanol, gas chromatography (Example 3, Table 12A). The procedure: (§1) A quantity of 100 mL of a model diesel feed formed of xylene, DBT, DBT sulfoxide and DBT sulfone (with a total sulfur content of 1635 ppmw) was oxidized by 30 W % aqueous hydrogen peroxide at a temperature of 37° C. and at a pressure of 1 atmosphere for a period of 70 minutes with solid ZnO catalyst (1.2 g) and a ratio of oxidant (H2O2) to organic sulfur of 4:1 in acetic acid, about 10 mL. After the sold catalyst settled, the model diesel was removed for extraction of sulfoxidation products and removal of aqueous H2O2 using an embodiment of the selective solvent formulation of the present invention.
A quantity of oxidized model diesel feed as used in Example 1 was subjected to extraction to remove DBT sulfoxide and DBT sulfone using a selective solvent formulation of 50 W % aqueous methanol. One extraction was conducted using a solvent to model diesel ratio of about 1:1 at a temperature of 23° C. and at a pressure of 1 atmosphere for a period of 2 minutes, during which the contents were stirred. The total extraction of DBT sulfoxide was 51.5 W %. […] The co-extraction of DBT (not oxidized) was limited to 3.1 W %. The total sulfur measured by sulfur speciation determined that the overall sulfur content was reduced by 16 W % as shown at Table 12B.

Series [2] can be described thus: Batch liquid-liquid extraction of oxidized model diesel with 50 W % aqueous acetic acid, gas chromatographic analysis (Example 1, Table 10A). Conditions: for total extraction: two batch extractions, solvent-to-model diesel about 1:1, 23° C., 1 atmosphere; for co-extraction: after both extractions. How it is done:
as §1
DBT sulfoxide and DBT sulfone were extracted using a selective solvent formulation of 50 W % aqueous acetic acid. Two batch extractions were sequentially conducted using a solvent-to-model diesel ratio of about 1:1 at a temperature of 23° C. and at a pressure of 1 atmosphere for a period of 2 minutes, during which the contents were stirred. The total extraction of DBT sulfoxide and DBT sulfone was 95 W % and 55 W % respectively. Furthermore, the co-extraction of xylene was limited to 1.9 W % after both extractions, and the co-extraction of DBT (not oxidized) was limited to 13.2 W % after both extractions. The total sulfur measured by sulfur speciation (using an ANTEK Model 9000 analyzer commercially available from Antek Instruments, Inc., Houston, Tex. USA) determined that the overall sulfur content was reduced by 55 W % as shown at Table 10B.

Series [3] in a line: Batch liquid-liquid extraction of oxidized model diesel with 70 W % aqueous formic acid, gas chromatography (Example 2, Table 11A). The settings on record: for total extraction: two batch extractions, about 1:1, 23° C., 1 atmosphere. How it is done: as §1
A quantity of oxidized model diesel feed as used in Example 1 was subjected to extraction to remove DBT sulfoxide and DBT sulfone using a selective solvent formulation of 70 W % aqueous formic acid. Two batch extractions were sequentially conducted using a solvent to model diesel ratio of about 1:1 at a temperature of 23° C. and at a pressure of 1 atmosphere for a period of 2 minutes, during which the contents were stirred. The total extraction of DBT sulfoxide and DBT sulfone was 94 W % and 56 W % respectively. Furthermore, the co-extraction of xylene was limited to 2 W % after the first extraction, and increased by 3.8 W % after the second extraction, based on the normalization percentage of the peak regions for the GC analysis for each extraction. The normalization method is qualitative and quasi-quantitative, so that the peak area varies. The slight positive (3.8%) of xylene is due to the normalization of the sum of all peaks and it was changed by material balance variation and/or with measurement error.
The co-extraction of DBT (not oxidized) was limited to 10 W % after both extractions. The total sulfur measured by sulfur speciation determined that the overall sulfur content was reduced by 56 W % as shown in Table 11B.

Where [4] appears, read: Model diesel oxidized, before extraction.
The mark [5] stands for this setting: after 1st extraction, 50 W % aqueous methanol.
The mark [6] stands for this setting: after 1st extraction, 50 W % aqueous methanol, solvent:diesel about 1:1, 23° C., 2 minutes.
Setting [7] is: 50 W % aqueous acetic acid, 2 minutes.
[8] abbreviates: after 1st extraction, 50 W % aqueous acetic acid.
Setting [9] is: after 1st extraction, 50 W % aqueous acetic acid, solvent:diesel about 1:1, 23° C., 2 minutes.
Where [10] appears, read: after 2nd extraction, 50 W % aqueous acetic acid.
[11] abbreviates: after 2nd extraction, 50 W % aqueous acetic acid, solvent:diesel about 1:1, 23° C., 2 minutes.
Setting [12] is: 70 W % aqueous formic acid, 2 minutes.
[13] abbreviates: after 1st extraction, 70 W % aqueous formic acid.
The mark [14] stands for this setting: after 1st extraction, 70 W % aqueous formic acid, solvent:diesel about 1:1, 23° C., 2 minutes.
[15] abbreviates: after 2nd extraction, 70 W % aqueous formic acid.
Setting [16] is: after 2nd extraction, 70 W % aqueous formic acid, solvent:diesel about 1:1, 23° C., 2 minutes.
Setting [17] is: 50 W % aqueous methanol, one extraction.

With `O=S1(=O)c2ccccc2-c2ccccc21` [DBT sulfone, dibenzothiophene 5,5-dioxide], the “GC abundance in model diesel” value was determined as 25.09 abundance units in series [1] (setting [4]); 24.49 abundance units in series [1] (setting [6]); 25.09 abundance units in series [2] (setting [4]); 19.15 abundance units in series [2] (setting [9]); 11.39 abundance units in series [2] (setting [11]); 25.09 abundance units in series [3] (setting [4]). For the same compound, the “GC abundance in model diesel” value in series [3] (setting [14]) is listed as 17.46 abundance units; in series [3] (setting [16]), 11.14 abundance units. Besides, the “change of GC abundance versus oxidized model diesel” value (shortened to “change”) in series [1] (setting [5]) is given as “(−2.4%)”; in series [2] (setting [8]), “(−23.7%)”; in series [2] (setting [10]), “(−54.8%)”; in series [3] (setting [13]), “(−30.4%)”; in series [3] (setting [15]) it was “(−55.6%)”. The total extraction was determined as 55 W % in series [2] (setting [7]) and 56 W % in series [3] (setting [12]).
Take `[O-][s+]1c2ccccc2c2ccccc21` [DBT sulfoxide, dibenzothiophene 5-oxide]: the total extraction in series [1] (50 W % aqueous methanol, one extraction, about 1:1, 23° C., 1 atmosphere, 2 minutes) was 51.5 W %; in series [2] (setting [7]), 95 W %; in series [3] (setting [12]) it was 94 W %. The “GC abundance in model diesel” value is given as 24.02 abundance units in series [1] (setting [4]); 11.64 abundance units in series [1] (setting [6]); 24.02 abundance units in series [2] (setting [4]); 7.81 abundance units in series [2] (setting [9]); 1.26 abundance units in series [2] (setting [11]); 24.02 abundance units in series [3] (setting [4]). The results for the “GC abundance in model diesel” value in series [3] (setting [14]) and in series [3] (setting [16]) were 6.45 abundance units and 1.38 abundance units, respectively. In addition, the “change” value in series [1] (setting [5]) was “(−51.5%)”; in series [2] (setting [8]), “(−67.5%)”; in series [2] (setting [10]), “(−94.8%)”; in series [3] (setting [13]), “(−73.1%)”; in series [3] (setting [15]), “(−94%)”.
Turning to `c1ccc2c(c1)sc1ccccc12` [DBT, dibenzothiophene], the co-extraction stood at 3.1 W % in series [1] (setting [17]); 13.2 W % in series [2] (50 W % aqueous acetic acid); 10 W % in series [3] (70 W % aqueous formic acid, after both extractions). The “GC abundance in model diesel” value in series [1] (setting [4]) is recorded as 24.44 abundance units; in series [1] (setting [6]) it was 23.69 abundance units; in series [2] (setting [4]), 24.44 abundance units; in series [2] (setting [9]) it was 22.09 abundance units; in series [2] (setting [11]) it was 21.22 abundance units; in series [3] (setting [4]), 24.44 abundance units. The “GC abundance in model diesel” value was 21.89 abundance units in series [3] (setting [14]) and 22 abundance units in series [3] (setting [16]). The “change” value was “(−3.1%)” in series [1] (setting [5]); “(−9.6%)” in series [2] (setting [8]); “(−13.2%)” in series [2] (setting [10]); “(−10.4%)” in series [3] (setting [13]); “(−10.0%)” in series [3] (setting [15]).
In the case of xylene, the “amount increased after extraction (normalized GC results)” value in series [1] (setting [17]) is given as 2.8 W %. Besides, the co-extraction entry in series [1] (setting [17]) was “no co-extraction”; in series [2] (50 W % aqueous acetic acid) it was 1.9 W %; in series [3] (70 W % aqueous formic acid, after the first extraction), 2 W %. Besides, the “GC abundance in model diesel” value in series [1] (setting [4]) is recorded as 9283.7 abundance units; in series [1] (setting [6]), 9540.4 abundance units; in series [2] (setting [4]), 9283.7 abundance units; in series [2] (setting [9]) it was 9155.2 abundance units; in series [2] (setting [11]), 9108.19 abundance units; in series [3] (setting [4]), 9283.7 abundance units. Besides, the entries for the “GC abundance in model diesel” value in series [3] (setting [14]) and in series [3] (setting [16]) were 9111.6 abundance units and 9635.5 abundance units, respectively. Further, the “change” value in series [1] (setting [5]) was “+2.8%)”; in series [2] (setting [8]), “(−1.4%)”; in series [2] (setting [10]), “(−1.9%)”; in series [3] (setting [13]), “(−1.9%)”; in series [3] (setting [15]) it was “(+3.8%)”. The “increase after the second extraction (normalized GC peak)” value in series [3] (70 W % aqueous formic acid, after the second extraction) was 3.8 W %.
